Experimental data: patent publication US12077503B2, “Substituted cyclic amides and their use as herbicides” (FMC CORPORATION, priority 2015, dated 2024)

Columns and labels:
Format in all cases: in vivo
[1] = tested on: ryegrass, Italian (Italian ryegrass, Lolium multiflorum); experiment: Test A postemergence; conditions: Lolium multiflorum, post-emergence, 240 h, Postemergence, read-out: Ryegrass, Italian plant response rating (0 to 100 scale)
Outline: (§1)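 In a loam soil and sand blend, planted seeds got a preemergence directed soil spray, and young plants at the one- to two-leaf stage, 2–10 cm high, got a postemergence application; ~10 d greenhouse hold; injury rated visually, 0 = none, 100 = complete control.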

[2] = tested on: ragweed (common ragweed, Ambrosia elatior); experiment: Test A postemergence; conditions: Ambrosia artemisiifolia, post-emergence, 240 h, Postemergence, read-out: Ragweed plant response rating (0 to 100 scale)
Outline: as §1

[3] = tested on: giant foxtail (Setaria faberii); experiment: Test A postemergence; conditions: Setaria faberi, post-emergence, 240 h, Postemergence, read-out: Foxtail, Giant plant response rating (0 to 100 scale)
Outline: as §1

[4] = tested on: pigweed (Amaranthus retroflexus); experiment: Test A postemergence; conditions: Amaranthus retroflexus, post-emergence, 240 h, Postemergence, read-out: Pigweed plant response rating (0 to 100 scale)
Outline: as §1

[5] = tested on: Galium (catchweed bedstraw, Galium aparine); experiment: Test A postemergence; conditions: Galium, post-emergence, 240 h, Postemergence, read-out: Galium plant response rating (0 to 100 scale)
Outline: as §1

[6] = tested on: wheat (Triticum aestivum); experiment: Test A postemergence; conditions: Triticum aestivum, post-emergence, 240 h, Postemergence, read-out: Wheat plant response rating (0 to 100 scale)
Outline: as §1

[7] = tested on: Kochia (Kochia scoparia); experiment: Test A postemergence; conditions: Bassia scoparia, post-emergence, 240 h, Postemergence, read-out: Kochia plant response rating (0 to 100 scale)
Outline: as §1

[8] = tested on: corn (Zea mays); experiment: Test A postemergence; conditions: Zea mays, post-emergence, 240 h, Postemergence, read-out: Corn plant response rating (0 to 100 scale)
Outline: as §1

[9] = tested on: blackgrass (Alopecurus myosuroides); experiment: Test A postemergence; conditions: Alopecurus myosuroides, post-emergence, 240 h, Postemergence, read-out: Blackgrass plant response rating (0 to 100 scale)
Outline: as §1

[10] = tested on: barnyardgrass (Echinochloa crus-galli); experiment: Test A postemergence; conditions: Echinochloa crus-galli, post-emergence, 240 h, Postemergence
Outline: as §1

[11] = tested on: ryegrass, Italian (Italian ryegrass, Lolium multiflorum); experiment: Test A preemergence; conditions: Lolium multiflorum, pre-emergence, 240 h, 0 to 100 scale where 0 is no effect and 100 is complete control, read-out: Ryegrass, Italian plant response rating
Outline: as §1

[12] = tested on: ragweed (common ragweed, Ambrosia elatior); experiment: Test A preemergence; conditions: Ambrosia artemisiifolia, pre-emergence, 240 h, 0 to 100 scale where 0 is no effect and 100 is complete control, read-out: Ragweed plant response rating
Outline: as §1

[13] = tested on: giant foxtail (Setaria faberii); experiment: Test A preemergence; conditions: Setaria faberi, pre-emergence, 240 h, 0 to 100 scale where 0 is no effect and 100 is complete control, read-out: Foxtail, Giant plant response rating
Outline: as §1

[14] = tested on: pigweed (Amaranthus retroflexus); experiment: Test A preemergence; conditions: Amaranthus retroflexus, pre-emergence, 240 h, 0 to 100 scale where 0 is no effect and 100 is complete control, read-out: Pigweed plant response rating
[15] = tested on: Kochia (Kochia scoparia); experiment: Test A preemergence; conditions: Bassia scoparia, pre-emergence, 240 h, 0 to 100 scale where 0 is no effect and 100 is complete control, read-out: Kochia plant response rating
Outline: as §1

[16] = tested on: barnyardgrass (Echinochloa crus-galli); experiment: Test A preemergence; conditions: Echinochloa crus-galli, pre-emergence, 240 h, 0 to 100 scale where 0 is no effect and 100 is complete control, read-out: Barnyardgrass plant response rating
Outline: as §1

[17] = tested on: sedge, umbrella (small-flower umbrella sedge, Cyperus difformis); experiment: Test B flooded paddy test; conditions: Cyperus difformis, 250 g ai/ha, Flood; 0 to 100 scale where 0 is no effect and 100 is complete control; read-out: Sedge, Umbrella plant response rating
Outline: (§2)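 Plants at 2-leaf stage flooded to 3 cm above soil, with compounds applied directly to paddy water and that depth maintained. Plants kept in greenhouse 13–15 d. Visual rating versus controls on a 0 (no effect) to 100 (complete control) scale.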

[18] = tested on: ducksalad (Heteranthera limosa); experiment: Test B flooded paddy test; conditions: Heteranthera limosa, 250 g ai/ha, Flood; 0 to 100 scale where 0 is no effect and 100 is complete control; read-out: Ducksalad plant response rating
Outline: as §2

[19] = tested on: rice (Oryra sativa); experiment: Test B flooded paddy test; conditions: Oryza sativa, 250 g ai/ha, Flood; 0 to 100 scale where 0 is no effect and 100 is complete control; read-out: Rice plant response rating
Outline: as §2

[20] = tested on: barnyardgrass (Echinochloa crus-galli); experiment: Test B flooded paddy test; conditions: Echinochloa crus-galli, 250 g ai/ha, Flood; 0 to 100 scale where 0 is no effect and 100 is complete control; read-out: Barnyardgrass plant response rating
Outline: as §2

[21] = 125 g ai/ha, visual rating about 10 d after treatment
[22] = 31 g ai/ha, 0 is no effect, 100 is complete control
[23] = 125 g ai/ha, preemergence, visual injury rating, approximately 10 d

O=C1NC[C@H](c2cc(Cl)cc(Cl)c2)[C@H]1C(=O)Nc1cccc(F)c1F [Compound 1273]
pest or weed control at 125 g/ha [1, 21]: 40% | pest or weed control at 31 g/ha [1, 22]: 0% | pest or weed control at 125 g/ha [2, 21]: 0% | pest or weed control at 31 g/ha [2, 22]: 0% | pest or weed control at 125 g/ha [3, 21]: 80% | pest or weed control at 31 g/ha [3, 22]: 60% | pest or weed control at 125 g/ha [4, 21]: 40% | pest or weed control at 31 g/ha [4, 22]: 0% | pest or weed control at 125 g/ha [5, 21]: 50% | pest or weed control at 31 g/ha [5, 22]: 40% | plant injury at 125 g/ha [6, 21]: 30% | plant injury at 31 g/ha [6, 22]: 0% | pest or weed control at 125 g/ha [7, 21]: 60% | pest or weed control at 31 g/ha [7, 22]: 0% | plant injury at 125 g/ha [8, 21]: 60% | plant injury at 31 g/ha [8, 22]: 0% | pest or weed control at 125 g/ha [9, 21]: 20% | pest or weed control at 31 g/ha [9, 22]: 0% | pest or weed control at 125 g/ha ([10]; 125 g ai/ha, visual rating about 10 d after treatment, read-out: Barnyardgrass plant response rating (0 to 100 scale, 0 no effect, 100 complete control)): 60% | pest or weed control at 31 g/ha ([10]; 31 g ai/ha, 0 is no effect, 100 is complete control, read-out: Barnyardgrass plant response rating (0 to 100 scale)): 50% | pest or weed control at 31 g/ha ([11]; 31 g ai/ha, Preemergence): 0% | pest or weed control at 125 g/ha [11, 23]: 40% | pest or weed control at 31 g/ha ([12]; 31 g ai/ha, Preemergence): 0% | pest or weed control at 125 g/ha [12, 23]: 0% | pest or weed control at 31 g/ha ([13]; 31 g ai/ha, Preemergence): 80% | pest or weed control at 125 g/ha [13, 23]: 90% | pest or weed control at 31 g/ha ([14]; 31 g ai/ha, Preemergence): 0% | pest or weed control at 125 g/ha [14, 23]: 20% | pest or weed control at 31 g/ha ([15]; 31 g ai/ha, Preemergence): 0% | pest or weed control at 125 g/ha [15, 23]: 50% | pest or weed control at 31 g/ha ([16]; 31 g ai/ha, Preemergence): 60% | pest or weed control at 125 g/ha [16, 23]: 80% | pest or weed control at 250 g/ha [17]: 0% | pest or weed control at 250 g/ha [18]: 90% | pest or weed control at 250 g/ha [19]: 0% | pest or weed control at 250 g/ha [20]: 30%
